PubChem BioAssay (NCI)
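Cultured in 96-well plates, cells were exposed to test compound for 48 hours across five concentrations. GI50 is the concentration that inhibits growth by half. At the TGI there is no net growth.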

Columns and labels:
Experiment in all cases: NCI tumour cell line growth inhibition, 48 h; in the data active means GI50 below about 0.43 µM; inactive means the rest
786-0 renal = system: 786-0 renal
A498 renal = system: A498 renal
A549 NSCLC = system: A549 NSCLC
ACHN renal = system: ACHN renal
BT-549 breast = system: BT-549 breast
CAKI-1 renal = system: CAKI-1 renal
CCRF-CEM leukemia = system: CCRF-CEM leukemia
COLO 205 colon = system: COLO 205 colon
DU-145 prostate = system: DU-145 prostate
EKVX NSCLC = system: EKVX NSCLC
HCC-2998 colon = system: HCC-2998 colon
HCT-116 colon = system: HCT-116 colon
HCT-15 colon = system: HCT-15 colon
HL-60(TB) leukemia = system: HL-60(TB) leukemia
HOP-62 NSCLC = system: HOP-62 NSCLC
HOP-92 NSCLC = system: HOP-92 NSCLC
HS 578T breast = system: HS 578T breast
HT29 colon = system: HT29 colon
IGROV1 ovarian = system: IGROV1 ovarian
K-562 leukemia = system: K-562 leukemia
KM12 colon = system: KM12 colon
LOX IMVI melanoma = system: LOX IMVI melanoma
M14 melanoma = system: M14 melanoma
MALME-3M melanoma = system: MALME-3M melanoma
MCF7 breast = system: MCF7 breast
MDA-MB-231 breast = system: MDA-MB-231 breast
MDA-MB-435 = system: MDA-MB-435
MDA-MB-468 breast = system: MDA-MB-468 breast
MOLT-4 leukemia = system: MOLT-4 leukemia
NCI-H226 lung = system: NCI-H226 lung
NCI-H23 lung = system: NCI-H23 lung
NCI-H460 lung = system: NCI-H460 lung
NCI-H522 lung = system: NCI-H522 lung
NCI/ADR-RES ovarian = system: NCI/ADR-RES ovarian
OVCAR-3 ovarian = system: OVCAR-3 ovarian
OVCAR-4 ovarian = system: OVCAR-4 ovarian
OVCAR-5 ovarian = system: OVCAR-5 ovarian
OVCAR-8 ovarian = system: OVCAR-8 ovarian
PC-3 prostate = system: PC-3 prostate
RPMI-8226 leukemia = system: RPMI-8226 leukemia
RXF 393 renal = system: RXF 393 renal
SF-268 CNS = system: SF-268 CNS
SF-295 CNS = system: SF-295 CNS
SF-539 CNS = system: SF-539 CNS
SK-MEL-2 melanoma = system: SK-MEL-2 melanoma
SK-MEL-28 melanoma = system: SK-MEL-28 melanoma
SK-MEL-5 melanoma = system: SK-MEL-5 melanoma
SK-OV-3 ovarian = system: SK-OV-3 ovarian
SN12C renal = system: SN12C renal
SNB-19 CNS = system: SNB-19 CNS
SNB-75 CNS = system: SNB-75 CNS
SR leukemia = system: SR leukemia
SW-620 colon = system: SW-620 colon
T-47D breast = system: T-47D breast
TK-10 renal = system: TK-10 renal
U251 CNS = system: U251 CNS
UACC-257 melanoma = system: UACC-257 melanoma
UACC-62 melanoma = system: UACC-62 melanoma
UO-31 renal = system: UO-31 renal

CC/C(=C(\c1ccc(O)cc1)c1ccc(OCCN(C)C(=O)COCCNC(=O)Cc2ccc3c(c2)CN([C@@H]2CCC(=O)NC2=O)C3=O)cc1)c1ccccc1
active: GI50 (BT-549 breast) 0.15 µM | GI50 (HL-60(TB) leukemia) 0.0309 µM | GI50 (HOP-92 NSCLC) 0.177 µM | GI50 (MALME-3M melanoma) 0.306 µM | GI50 (MCF7 breast) 0.104 µM | GI50 (MDA-MB-231 breast) 0.142 µM | GI50 (MDA-MB-468 breast) 0.0374 µM | GI50 (MOLT-4 leukemia) 0.0517 µM | GI50 (SNB-75 CNS) 0.316 µM | GI50 (T-47D breast) 0.0259 µM
> 82.3 µM: TGI (HCC-2998 colon)
73.9 µM: TGI (SK-MEL-5 melanoma)
33.3 µM: TGI (COLO 205 colon)
4.61 µM: TGI (T-47D breast)
3.05 µM: TGI (HOP-92 NSCLC)
> 91.8 µM: TGI (SK-MEL-2 melanoma)
11.8 µM: TGI (HS 578T breast)
> 94.8 µM: TGI (SNB-75 CNS)
72.8 µM: TGI (RXF 393 renal)
0.743 µM: TGI (BT-549 breast)
19.1 µM: TGI (HOP-62 NSCLC)
0.801 µM: TGI (MDA-MB-231 breast)
> 74 µM: TGI (SR leukemia)
0.266 µM: TGI (MDA-MB-468 breast)
1.1 µM: TGI (MOLT-4 leukemia)
> 93 µM: TGI (SN12C renal)
> 26.7 µM: TGI (NCI-H226 lung)
2.49 µM: TGI (MALME-3M melanoma)
33.4 µM: TGI (OVCAR-8 ovarian)
0.659 µM: TGI (HL-60(TB) leukemia)
> 100 µM: TGI (786-0 renal) | TGI (A498 renal) | TGI (A549 NSCLC) | TGI (ACHN renal) | TGI (CAKI-1 renal) | TGI (DU-145 prostate) | TGI (EKVX NSCLC) | TGI (HCT-116 colon) | TGI (HCT-15 colon) | TGI (HT29 colon) | TGI (IGROV1 ovarian) | TGI (K-562 leukemia) | TGI (KM12 colon) | TGI (LOX IMVI melanoma) | TGI (M14 melanoma) | TGI (MCF7 breast) | TGI (MDA-MB-435) | TGI (NCI-H23 lung) | TGI (NCI-H460 lung) | TGI (NCI-H522 lung) | TGI (NCI/ADR-RES ovarian) | TGI (OVCAR-3 ovarian) | TGI (OVCAR-4 ovarian) | TGI (OVCAR-5 ovarian) | TGI (PC-3 prostate) | TGI (RPMI-8226 leukemia) | TGI (SF-268 CNS) | TGI (SF-295 CNS) | TGI (SF-539 CNS) | TGI (SK-MEL-28 melanoma) | TGI (SK-OV-3 ovarian) | TGI (SNB-19 CNS) | TGI (SW-620 colon) | TGI (TK-10 renal) | TGI (U251 CNS) | TGI (UACC-257 melanoma) | TGI (UACC-62 melanoma) | TGI (UO-31 renal)
inactive: GI50 (786-0 renal) 51.7 µM | GI50 (A498 renal) 38.6 µM | GI50 (A549 NSCLC) 46.2 µM | GI50 (ACHN renal) > 100 µM | GI50 (CAKI-1 renal) 55.1 µM | GI50 (CCRF-CEM leukemia) 0.995 µM | GI50 (COLO 205 colon) 2.11 µM | GI50 (DU-145 prostate) > 100 µM | GI50 (EKVX NSCLC) > 47 µM | GI50 (HCC-2998 colon) 1.7 µM | GI50 (HCT-116 colon) > 85.7 µM | GI50 (HCT-15 colon) > 88.1 µM | GI50 (HOP-62 NSCLC) 2.28 µM | GI50 (HS 578T breast) 0.672 µM | GI50 (HT29 colon) > 57.6 µM | GI50 (IGROV1 ovarian) 0.433 µM | GI50 (K-562 leukemia) 16 µM | GI50 (KM12 colon) 8.5 µM | GI50 (LOX IMVI melanoma) > 84.5 µM | GI50 (M14 melanoma) 30.8 µM | GI50 (MDA-MB-435) 17.8 µM | GI50 (NCI-H226 lung) 2.35 µM | GI50 (NCI-H23 lung) > 93.6 µM | GI50 (NCI-H460 lung) > 100 µM | GI50 (NCI-H522 lung) > 21.6 µM | GI50 (NCI/ADR-RES ovarian) > 100 µM | GI50 (OVCAR-3 ovarian) 15.2 µM | GI50 (OVCAR-4 ovarian) 11.2 µM | GI50 (OVCAR-5 ovarian) > 57.6 µM | GI50 (OVCAR-8 ovarian) 1.56 µM | GI50 (PC-3 prostate) 0.703 µM | GI50 (RPMI-8226 leukemia) 5.07 µM | GI50 (RXF 393 renal) 4.19 µM | GI50 (SF-268 CNS) 5.38 µM | GI50 (SF-295 CNS) > 100 µM | GI50 (SF-539 CNS) > 62.6 µM | GI50 (SK-MEL-2 melanoma) 6.14 µM | GI50 (SK-MEL-28 melanoma) 21.6 µM | GI50 (SK-MEL-5 melanoma) 6.78 µM | GI50 (SK-OV-3 ovarian) 10.7 µM | GI50 (SN12C renal) 2.27 µM | GI50 (SNB-19 CNS) 1.83 µM | GI50 (SR leukemia) 13.5 µM | GI50 (SW-620 colon) 1.9 µM | GI50 (TK-10 renal) > 100 µM | GI50 (U251 CNS) > 74.9 µM | GI50 (UACC-257 melanoma) > 100 µM | GI50 (UACC-62 melanoma) 54.2 µM | GI50 (UO-31 renal) > 100 µM
